Experimental data: ChEMBL document CHEMBL3822366, “Design, synthesis and anticancer activity of novel hybrid compounds between benzofuran and N-aryl piperazine” (Bioorg Med Chem Lett, 2016)

Experiments:
[1] = system: A549; experiment: Cytotoxicity against human A549 cells after 48 hrs by MTT assay; format: functional, cell-based; settings: A549, 48 h
[2] = system: HeLa; experiment: Cytotoxicity against human HeLa cells after 48 hrs by MTT assay; format: functional, cell-based
[3] = system: MCF7; experiment: Cytotoxicity against human MCF7 cells after 48 hrs by MTT assay; format: functional, cell-based; settings: MCF7, 48 h
[4] = Cytotoxicity against human SGC7901 cells after 48 hrs by MTT assay; format: functional, cell-based; settings: SGC-7901, 48 h
[5] = Cytotoxicity against human L02 cells at <40 uM after 48 hrs by MTT assay; format: cell-based; settings: l02, 48 h

Row | SMILES | IC50 [1] [µM] | IC50 [2] [µM] | IC50 [3] [µM] | IC50 [4] [µM] | Activity [5]
1 | CCN(CC)c1ccc2cc(C(=O)c3ccc(N4CCN(C(=O)c5cccc(C(F)(F)F)c5)CC4)cc3)oc2c1 | 9.27 | 0.4 | 34.1 | 11.3 | –
2 | CCN(CC)c1ccc2cc(C(=O)c3ccc(N4CCN(S(=O)(=O)c5ccc(Br)cc5)CC4)cc3)oc2c1 | 34.3 | > 40 | 26.1 | > 40 | –
3 | CCN(CC)c1ccc2cc(C(=O)c3ccc(N4CCN(S(=O)(=O)c5ccc([N+](=O)[O-])cc5)CC4)cc3)oc2c1 | 24.4 | > 40 | > 40 | 1.86 | –
4 | CCN(CC)c1ccc2cc(C(=O)c3ccc(N4CCN(C(=O)c5ccc(Cl)c(Cl)c5)CC4)cc3)oc2c1 | 0.22 | 15.2 | 8.08 | 5.84 | –
5 | CCOC(=O)N1CCN(c2ccc(C(=O)c3cc4ccc(N(CC)CC)cc4o3)cc2)CC1 | > 40 | 20.3 | > 40 | > 40 | –
6 | CCN(CC)c1ccc2cc(C(=O)c3ccc(N4CCN(C(C)=O)CC4)cc3)oc2c1 | 30.1 | 5.15 | 16.2 | 25.6 | –
7 | CCN(CC)c1ccc2cc(C(=O)c3ccc(N4CCN(C(=O)c5ccccc5Cl)CC4)cc3)oc2c1 | 6.11 | 0.34 | 26.3 | 12 | –
8 | CCN(CC)c1ccc2cc(C(=O)c3ccc(N4CCN(C(=O)c5ccc([N+](=O)[O-])c([N+](=O)[O-])c5)CC4)cc3)oc2c1 | > 40 | 25.2 | 19.6 | > 40 | –
9 | CCN(CC)c1ccc2cc(C(=O)c3ccc(N4CCN(S(=O)(=O)c5ccc(C(F)(F)F)cc5)CC4)cc3)oc2c1 | 11.1 | 9.72 | > 40 | 0.17 | –
10 | CCN(CC)c1ccc2cc(C(=O)c3ccc(N4CCN(C(=O)c5ccc(Br)cc5F)CC4)cc3)oc2c1 | 20.4 | 0.53 | > 40 | 13.5 | –
11 | CCN(CC)c1ccc2cc(C(=O)c3ccc(N4CCN(C(=O)COc5ccc(Cl)cc5Cl)CC4)cc3)oc2c1 | 5.73 | 0.03 | 12.4 | 6.17 | Non-toxic
12 | CCN(CC)c1ccc2cc(C(=O)c3ccc(N4CCN(C(=O)c5ccccc5)CC4)cc3)oc2c1 | > 40 | 15.2 | > 40 | > 40 | –
13 | CCN(CC)c1ccc2cc(C(=O)c3ccc(N4CCN(S(C)(=O)=O)CC4)cc3)oc2c1 | > 40 | > 40 | > 40 | > 40 | –
14 | CCN(CC)c1ccc2cc(C(=O)c3ccc(N4CCN(S(=O)(=O)c5ccc(C)cc5)CC4)cc3)oc2c1 | > 40 | 37.8 | > 40 | > 40 | –
15 | CCN(CC)c1ccc2cc(C(=O)c3ccc(N4CCN(S(=O)(=O)c5ccc(F)cc5)CC4)cc3)oc2c1 | 16.4 | 21.6 | 21.7 | > 40 | –
16 | CCN(CC)c1ccc2cc(C(=O)c3ccc(N4CCN(S(=O)(=O)c5ccc(Br)c(F)c5)CC4)cc3)oc2c1 | 15.1 | 20.7 | 2.27 | > 40 | –
